Measurements published in ChEMBL document CHEMBL3046890, “Synthesis and Herbicidal Activity of Sulfonylureas; SL-950 and Its Related Compounds” (1995).

Tests used:
Assay type in all cases: functional
Eleusine indica [1] = assay: Post emergence herbicidal activity against three-leaf stage Eleusine indica assessed as efficacy of weed growth control at 40 g ai/ha under greenhouse conditions
Eleusine indica [2] = assay: Post emergence herbicidal activity against three-leaf stage Eleusine indica assessed as efficacy of weed growth control at 60 g ai/ha under greenhouse conditions
Setaria viridis [3] = assay: Post-emergence herbicidal activity against two-leaf stage Setaria viridis (green foxtail) assessed as efficacy of weed growth control at 60 g ai/ha under greenhouse conditions
Cyperus rotundus = assay: Post-emergence herbicidal activity against four to five-leaf stage Cyperus rotundus assessed as efficacy of weed growth control at 40 g ai/ha under greenhouse conditions
Portulaca oleracea [4] = assay: Post-emergence herbicidal activity against three-leaf stage Portulaca oleracea assessed as efficacy of weed growth control at 40 g ai/ha under greenhouse conditions
Solanum nigrum [5] = assay: Post emergence herbicidal activity against four-leaf stage Solanum nigrum (black nightshade) assessed as efficacy of weed growth control at 40 g ai/ha under greenhouse conditions
Amaranthus viridis = assay: Post-emergence herbicidal activity against three-leaf stage Amaranthus viridis assessed as efficacy of weed growth control at 40 g ai/ha under greenhouse conditions
Elymus repens [6] = assay: Post-emergence herbicidal activity against three to four-leaf stage Elymus repens (couch grass) assessed as efficacy of weed growth control at 750 g ai/ha under greenhouse conditions
Digitaria sanguinalis [7] = assay: Post-emergence herbicidal activity against two-leaf stage Digitaria sanguinalis (hairy crabgrass) assessed as efficacy of weed growth control at 80 g ai/ha under greenhouse conditions
Cynodon dactylon = assay: Post-emergence herbicidal activity against 15 cm leaf stage Cynodon dactylon assessed as efficacy of weed growth control at 60 g ai/ha under greenhouse conditions
Capsella bursa-pastoris [8] = assay: Post-emergence herbicidal activity against four-leafstage Capsella bursa-pastoris assessed as efficacy of weed growth control at 60 g ai/ha under greenhouse conditions
Commelina communis [9] = assay: Post emergence herbicidal activity against two-leaf stage Commelina communis (Asiatic dayflower) assessed as efficacy of weed growth control at 60 g ai/ha under greenhouse conditions
Solanum nigrum [10] = assay: Post emergence herbicidal activity against four-leaf stage Solanum nigrum (black nightshade) assessed as efficacy of weed growth control at 60 g ai/ha under greenhouse conditions
Persicaria lapathifolia [11] = assay: Post-emergence herbicidal activity against three-leaf stage Persicaria lapathifolia assessed as efficacy of weed growth control at 60 g ai/ha under greenhouse conditions
Stellaria media [12] = assay: Post-emergence herbicidal activity against eight-leaf stage Stellaria media assessed as efficacy of weed growth control at 60 g ai/ha under greenhouse conditions
Galinsoga quadriradiata [13] = assay: Post-emergence herbicidal activity against four-leafstage of Galinsoga quadriradiata assessed as efficacy of weed growth control at 60 g ai/ha under greenhouse conditions
Avena fatua [14] = assay: Post emergence herbicidal activity against three-leaf stage Avena fatua assessed as efficacy of weed growth control at 60 g ai/ha under greenhouse conditions
Eleusine indica [15] = assay: Post-emergence herbicidal activity against three-leaf stage Eleusine indica assessed as efficacy of weed growth control at 80 g ai/ha under greenhouse conditions
Setaria viridis [16] = assay: Post-emergence herbicidal activity against two-leaf stage Setaria viridis (green foxtail) assessed as efficacy of weed growth control at 80 g ai/ha under greenhouse conditions
Abutilon theophrasti [17] = assay: Post-emergence herbicidal activity against one-leaf stage Abutilon theophrasti (velvetleaf) assessed as efficacy of weed growth control at 40 g ai/ha under greenhouse conditions
Sida spinosa = assay: Post-emergence herbicidal activity against two-leaf stage Sida spinosa assessed as efficacy of weed growth control at 40 g ai/ha under greenhouse conditions
Stellaria media [18] = assay: Post-emergence herbicidal activity against eight-leaf stage Stellaria media assessed as efficacy of weed growth control at 40 g ai/ha under greenhouse conditions
Avena fatua [19] = assay: Post emergence herbicidal activity against three-leaf stage Avena fatua assessed as efficacy of weed growth control at 40 g ai/ha under greenhouse conditions
Echinochloa crus-galli = assay: Post emergence herbicidal activity against three-leaf stage Echinochloa crus-galli (barnyard grass) assessed as efficacy of weed growth control at 40 g ai/ha under greenhouse conditions
Setaria viridis [20] = assay: Post-emergence herbicidal activity against two-leaf stage Setaria viridis (green foxtail) assessed as efficacy of weed growth control at 40 g ai/ha under greenhouse conditions
Digitaria sanguinalis [21] = assay: Post-emergence herbicidal activity against two-leaf stage Digitaria sanguinalis (hairy crabgrass) assessed as efficacy of weed growth control at 40 g ai/ha under greenhouse conditions
Eleusine indica [22] = assay: Post emergence herbicidal activity against three-leaf stage Eleusine indica assessed as efficacy of weed growth control at 750 g ai/ha under greenhouse conditions
Digitaria sanguinalis [23] = assay: Post-emergence herbicidal activity against two-leaf stage Digitaria sanguinalis (hairy crabgrass) assessed as efficacy of weed growth control at 750 g ai/ha under greenhouse conditions
Abutilon theophrasti [24] = assay: Post-emergence herbicidal activity against one-leaf stage Abutilon theophrasti (velvetleaf) assessed as efficacy of weed growth control at 750 g ai/ha under greenhouse conditions
Chenopodium album = assay: Post-emergence herbicidal activity against two-leaf stage Chenopodium album assessed as efficacy of weed growth control at 750 g ai/ha under greenhouse conditions
Persicaria lapathifolia [25] = assay: Post-emergence herbicidal activity against three-leaf stage Persicaria lapathifolia assessed as efficacy of weed growth control at 750 g ai/ha under greenhouse conditions
Galinsoga quadriradiata [26] = assay: Post-emergence herbicidal activity against four-leafstage of Galinsoga quadriradiata assessed as efficacy of weed growth control at 750 g ai/ha under greenhouse conditions
Elymus repens [27] = assay: Post-emergence herbicidal activity against three to four-leaf stage Elymus repens (couch grass) assessed as efficacy of weed growth control at 80 g ai/ha under greenhouse conditions
Sorghum halepense = assay: Post emergence herbicidal activity against four to five-leaf stage Sorghum halepense (Johnson grass) assessed as efficacy of weed growth control at 80 g ai/ha under greenhouse conditions
Capsella bursa-pastoris [28] = assay: Post-emergence herbicidal activity against four-leaf stage Capsella bursa-pastoris assessed as efficacy of weed growth control at 80 g ai/ha under greenhouse conditions
Commelina communis [29] = assay: Post emergence herbicidal activity against two-leaf stage Commelina communis (Asiatic dayflower) assessed as efficacy of weed growth control at 80 g ai/ha under greenhouse conditions
Portulaca oleracea [30] = assay: Post-emergence herbicidal activity against three-leaf stage Portulaca oleracea assessed as efficacy of weed growth control at 80 g ai/ha under greenhouse conditions
Abutilon theophrasti [31] = assay: Post-emergence herbicidal activity against one-leaf stage Abutilon theophrasti (velvetleaf) assessed as efficacy of weed growth control at 80 g ai/ha under greenhouse conditions
Persicaria lapathifolia [32] = assay: Post-emergence herbicidal activity against three-leaf stage Persicaria lapathifolia assessed as efficacy of weed growth control at 80 g ai/ha under greenhouse conditions
Stellaria media [33] = assay: Post-emergence herbicidal activity against eight-leaf stage Stellaria media assessed as efficacy of weed growth control at 80 g ai/ha under greenhouse conditions
Galinsoga quadriradiata [34] = assay: Post-emergence herbicidal activity against four-leafstage of Galinsoga quadriradiata assessed as efficacy of weed growth control at 80 g ai/ha under greenhouse conditions
Cyperus microiria = assay: Post-emergence herbicidal activity against three-leaf stage Cyperus microiria assessed as efficacy of weed growth control at 80 g ai/ha under greenhouse conditions

Work on `COc1cc(OC)nc(NC(=O)NS(=O)(=O)c2ncccc2C(=O)N(C)C)n1` [NICOSULFURON] yielded an Efficacy (Eleusine indica [1]) of 95%, an Efficacy (Eleusine indica [2]) of 95% and an Efficacy (Setaria viridis [3]) of 95%. The Efficacy (Cyperus rotundus) was less than 50%, the Efficacy (Portulaca oleracea [4]) was 70% and the Efficacy (Solanum nigrum [5]) was 50%. For the same compound, the Efficacy (Amaranthus viridis) was 95%, the Efficacy (Elymus repens [6]) was less than 50% and the Efficacy (Digitaria sanguinalis [7]) was 95%. It also gave an Efficacy (Cynodon dactylon) of less than 50%, an Efficacy (Capsella bursa-pastoris [8]) of 95% and an Efficacy (Commelina communis [9]) of 95%. For the same compound, the Efficacy (Solanum nigrum [10]) was 50%, the Efficacy (Persicaria lapathifolia [11]) was 95% and the Efficacy (Stellaria media [12]) was 95%. It also gave an Efficacy (Galinsoga quadriradiata [13]) of 95%, an Efficacy (Avena fatua [14]) of 95% and an Efficacy (Eleusine indica [15]) of 95%. The Efficacy (Setaria viridis [16]) was 95%, the Efficacy (Abutilon theophrasti [17]) was 50% and the Efficacy (Sida spinosa) was 50%. The Efficacy (Stellaria media [18]) was 70%, the Efficacy (Avena fatua [19]) was 95% and the Efficacy (Echinochloa crus-galli) was 95%. For the same compound, the Efficacy (Setaria viridis [20]) was 95%, the Efficacy (Digitaria sanguinalis [21]) was 70% and the Efficacy (Eleusine indica [22]) was less than 50%. It also gave an Efficacy (Digitaria sanguinalis [23]) of less than 50%, an Efficacy (Abutilon theophrasti [24]) of 95% and an Efficacy (Chenopodium album) of 95%. The Efficacy (Persicaria lapathifolia [25]) was 95%, the Efficacy (Galinsoga quadriradiata [26]) was 95% and the Efficacy (Elymus repens [27]) was 95%. It also gave an Efficacy (Sorghum halepense) of 95%, an Efficacy (Capsella bursa-pastoris [28]) of 95% and an Efficacy (Commelina communis [29]) of 95%. The Efficacy (Portulaca oleracea [30]) was 95%, the Efficacy (Abutilon theophrasti [31]) was 70% and the Efficacy (Persicaria lapathifolia [32]) was 95%. For the same compound, the Efficacy (Stellaria media [33]) was 95%, the Efficacy (Galinsoga quadriradiata [34]) was 95% and the Efficacy (Cyperus microiria) was 95%.
